Data published in PMC11545510, “Goat Milk Protein-Derived ACE Inhibitory Peptide SLPQ Exerts Hypertension Alleviation Effects Partially by Regulating the Inflammatory Stress of Endothelial Cells” (Foods, 2024).
Where a SMILES comes first, the peptide text is derived from it.

Key:
EA.hy926 cells = experiment: MTT cell viability; type: cell-based; details: 12 or 24 h; for viability of EA.hy926 cells: concentration lower than 200 μg/mL
Method: The cells were cultured in DMEM with 100 units/mL streptomycin–penicillin plus 2% FBS under an atmosphere of 5% CO2, 37 °C, and 100% humidity. The cells were seeded in 96-well plates at a density of 1 × 10^5 cells/well, and then treated with different concentrations of SLPQ (0, 12.5, 25, 50, 100, 200, 400, 800 μg/mL) or PYVRYL (0, 25, 50, 100, 200, 400, 800 μg/mL) for 12 or 24 h. After that, 0.05 mg/mL of MTT was added to each well and the plate was incubated for four hours at 37 °C. Finally, the culture media were replaced with 150 μL DMSO, and the OD value was detected at a wavelength of 570 nm (Infinity F200 microplate reader, Mainz, Germany).

eNOS = details: goat milk-derived ACE-inhibitory peptide; ref [39]; cited from earlier work
Method: Consequently, peptides SLPQ or PYVRYL were supplemented at concentrations ranging from 0 to 200 μg/mL in the following study. The bradykinin–NO signaling pathway can be activated by […] [44], and NO plays an important role in regulating blood pressure and the tension of vascular smooth muscle. Therefore, the content of NO in the ...

| Compound | toxic effects on EA.hy926 cells (EA.hy926 cells; 400 μg/mL) | toxic effects on EA.hy926 cells (EA.hy926 cells; 800 μg/mL) | viability of EA.hy926 cells (EA.hy926 cells) | NO production and eNOS expression (eNOS) |
| --- | --- | --- | --- | --- |
| CC(C)C[C@H](NC(=O)[C@@H](N)CO)C(=O)N1CCC[C@H]1C(=O)N[C@@H](CCC(N)=O)C(=O)O [SLPQ] (H-SLPQ-OH) | obvious toxic effects | obvious toxic effects | not affected |  |
| SQPK |  |  |  | elevate NO production and eNOS expression |
| CC(C)C[C@H](NC(=O)[C@H](Cc1ccc(O)cc1)NC(=O)[C@H](CCCNC(=N)N)NC(=O)[C@@H](NC(=O)[C@H](Cc1ccc(O)cc1)NC(=O)[C@@H]1CCCN1)C(C)C)C(=O)O [PYVRYL] (H-PYVRYL-OH) | obvious toxic effects | obvious toxic effects | not affected |  |
